Assay results reported in patent US8354436B2 (4SC Discovery GmbH, priority 2011, dated 2013).

Tested on: PBMC from healthy human donors
Experiment: T cell proliferation assay (PHA-stimulated human PBMC, BrdU ELISA)
Assay type: cell-based
Conditions: PHA-stimulated human PBMC, 48 hours, column D, read-out: IC50 (Tcell proliferation)
Method: Cell proliferation was analysed using the BrdU based cell proliferation ELISA from Roche (Mannheim, Germany) according to the manufacturer's instructions. T Cell Proliferation Assay Peripheral blood mononuclear cells (PBMC) from healthy human donors were isolated by centrifugation over Ficoll-Hypaque (Sigma-Aldrich, Germany) according to manufacturer's instructions. Purified PBMC were washed twice with PBS and resuspended in RPMI1640 culture medium supplemented with 10% dialyzed heat inactivated fetal calf serum, 1.5 mM L-glutamine, 100 U penicillin/ml, and […] (all from PAN Biotech, Aidenbach, Germany). For stimulation, PBMC were seeded at 1×10^5 cells/well, activated with 2 μg/ml phytohaemagglutinin (PHA, Sigma) and incubated with the test compound. After 48 hours proliferation was measured using the BrdU based cell proliferation ELISA from Roche (Mannheim, Germany) according to the manual.

Row | Structure (SMILES) | IC50
1 | NNC(=O)c1c(-c2cccc(F)c2)noc1-c1cnn(-c2cccc(F)c2)c1C(F)(F)F [Example I-134, 3-(3-fluorophenyl)-5-(1-(3-fluorophenyl)-5-(trifluoromethyl)-1H-pyrazol-4-yl)isoxazole-4-carbohydrazide] | 1 to 10 µM
2 | COC(=O)c1c(-c2ccc(Cl)cc2)noc1-c1cnn(-c2cccc(F)c2)c1C(F)(F)F [Example I-73, methyl 3-(4-chlorophenyl)-5-(1-(3-fluorophenyl)-5-(trifluoromethyl)-1H-pyrazol-4-yl)isoxazole-4-carboxylate] | 1 to 10 µM
3 | COc1ccc(-c2noc(-c3cnn(-c4cccc(F)c4)c3C(F)(F)F)c2C(=O)O)cc1 [Example I-108, 5-(1-(3-fluorophenyl)-5-(trifluoromethyl)-1H-pyrazol-4-yl)-3-(4-methoxyphenyl)isoxazole-4-carboxylic acid] | 1 to 10 µM
4 | COC(=O)c1c(-c2c(F)cccc2Cl)noc1-c1cnn(-c2cccc(C(F)(F)F)c2)c1C(F)(F)F [Example I-82, methyl 3-(2-chloro-6-fluorophenyl)-5-(5-(trifluoromethyl)-1-(3-(trifluoromethyl)phenyl)-1H-pyrazol-4-yl)isoxazole-4-carboxylate] | 1 to 10 µM
5 | COC(=O)c1c(-c2ccc(OC)cc2)noc1-c1cnn(-c2cccc(F)c2)c1C(F)(F)F [Example I-107, methyl 5-(1-(3-fluorophenyl)-5-(trifluoromethyl)-1H-pyrazol-4-yl)-3-(4-methoxyphenyl)isoxazole-4-carboxylate] | 1 to 10 µM
6 | CCOC(=O)c1c(-c2onc(-c3c(F)cccc3Cl)c2C(=O)OC)cnn1CC(C)C [Example I-29] | 1 to 10 µM
7 | COC(=O)c1c(-c2c(F)cccc2Cl)noc1-c1cnn(-c2ccc(Cl)cc2Cl)c1C(F)(F)F [Example I-7, methyl 3-(2-chloro-6-fluorophenyl)-5-(1-(2,4-dichlorophenyl)-5-(trifluoromethyl)-1H-pyrazol-4-yl)isoxazole-4-carboxylate] | 1 to 10 µM

Tested on: IFN-γ
Experiment: IFN-γ production by PHA-stimulated human PBMC (OptEIA human IFN-g ELISA)
Assay type: cell-based
Conditions: PHA-stimulated human PBMC, 48 hours; column C; read-out: IC50 (IFNγ)
Method: Analysis of Proliferation of and Cytokine Production by Human PBMC Stimulated with PHA
Peripheral blood mononuclear cells (PBMC) from healthy human donors were purified using Accuspin™ System-Histopaque-1077 (Sigma) according to the protocol recommended by the manufacturer. Purified PBMC were then washed twice with phosphate-buffered saline (PBS) and resuspended in RPMI1640 culture medium supplemented with 10% dialyzed heat inactivated fetal calf serum, 1.5 mM L-glutamine, 100 U penicillin/ml, and […] (all from PAN Biotech, Aidenbach, Germany). For stimulation, PBMC were seeded at 1×10^5 cells/well, activated with 2 μg/ml phytohaemagglutinin (PHA, Sigma) and incubated with the test compounds for 48 hours. IL-17A, IL-17F and INF-γ were then determined in the culture supernatant using a Luminex BioPlex system, following the manufacturer's instructions (BioRad, Munich, Germany). For screening, compounds were used at 10, 1, 0.1 and 0.01 μM. To determine the IC50, compounds were titrated semilogarithmically.
Cytokines were determined in the aforementioned culture supernatant using the following methods: IL-17AA/AF was measured using the Luminex BioPlex system (BioRad, Munich, Germany); IL-17AA using the human homodimer IL-17A ELISA Ready Set Go Kit from eBioscience (Frankfurt, Germany); IL-17FF using the human IL-17F ELI-Pair from Hölzel DiagnosticaGmBH (Köln, Germany); and IFN-γ using the OptEIA human IFN-g ELISA from BD Bioscience (Heidelberg, Germany), all following the manufacturer's instructions.

Row | Structure (SMILES) | IC50
8 | CNC(=O)c1c(-c2ccc(Cl)cc2)noc1-c1cnn(-c2cccc(F)c2)c1C(F)(F)F [Example I-75, 3-(4-chlorophenyl)-5-(1-(3-fluorophenyl)-5-(trifluoromethyl)-1H-pyrazol-4-yl)-N-methylisoxazole-4-carboxamide] | 1 to 10 µM
9 | COC(=O)c1c(-c2c(F)cccc2Cl)noc1-c1cnn(-c2ccccc2Br)c1C(F)(F)F [Example I-80, methyl 5-(1-(2-bromophenyl)-5-(trifluoromethyl)-1H-pyrazol-4-yl)-3-(2-chloro-6-fluorophenyl)isoxazole-4-carboxylate] | 1 to 10 µM
10 | Fc1ccc(-n2ncc(-c3cc(-c4c(F)cccc4Cl)no3)c2C(F)(F)F)cc1 [Example I-25, 3-(2-chloro-6-fluorophenyl)-5-(1-(4-fluorophenyl)-5-(trifluoromethyl)-1H-pyrazol-4-yl)isoxazole] | 1 to 10 µM
11 | CCOC(=O)c1c(-c2onc(-c3c(F)cccc3Cl)c2C(=O)OC)cnn1-c1ccsc1C(=O)OC [Example I-15, methyl 3-(2-chloro-6-fluorophenyl)-5-(5-(ethoxycarbonyl)-1-(2-(methoxycarbonyl)thiophen-3-yl)-1H-pyrazol-4-yl)isoxazole-4-carboxylate] | 1 to 10 µM
12 | CCOC(=O)c1c(-c2onc(-c3c(F)cccc3Cl)c2C(=O)OC)cnn1-c1ccccc1OC [Example I-40] | 1 to 10 µM
13 | CCOC(=O)c1c(-c2onc(-c3c(F)cccc3Cl)c2C(=O)OC)cnn1-c1c(F)c(F)cc(F)c1F [Example I-38, methyl 3-(2-chloro-6-fluorophenyl)-5-(5(ethoxycarbonyl)-1-(2,3,5,6-tetrafluorophenyl)-1H-pyrazol-4-yl)isoxazole-4-carboxylate] | 1 to 10 µM
14 | CCOC(=O)c1c(-c2onc(-c3c(F)cccc3Cl)c2C(=O)OC)cnn1-c1ccc(OC(F)(F)F)cc1 [Example I-45, methyl 3-(2-chloro-6-fluoro-phenyl)-5-(5-(ethoxycarbonyl)-1-(4-(trifluoromethoxy)phenyl)1H-pyrazol-4-yl)isoxazole-4-carboxylate] | 1 to 10 µM
15 | COC(=O)c1c(-c2c(F)cccc2Cl)noc1-c1cnn(-c2ccc(OC)cc2)c1C(F)(F)F [Example I-79] | 1 to 10 µM

Second part, the compound after the results:

Row | IC50 | Structure (SMILES)
16 | 1 to 10 µM | COc1ccccc1-n1ncc(-c2onc(-c3c(F)cccc3Cl)c2Br)c1C(F)(F)F [IB-23, 4-bromo-3-(2-chloro-6-fluorophenyl)-5-(1-(2-methoxyphenyl)-5-(trifluoromethyl)-1H-pyrazol-4-yl)isoxazole]
17 | 1 to 10 µM | COC(=O)c1c(-c2c(F)cccc2Cl)noc1-c1cnn(CCO)c1C(F)(F)F [Example I-83, methyl 3-(2-chloro-6-fluorophenyl)-5-(1-(2-hydroxyethyl)-5-(trifluoromethyl)-1H-pyrazol-4-yl)isoxazole-4-carboxylate]
18 | 1 to 10 µM | Fc1ccccc1-n1ncc(-c2onc(-c3c(F)cccc3Cl)c2C(=S)N2CCOCC2)c1C(F)(F)F [Example I-123, (3-(2-chloro-6-fluorophenyl)-5-(1-(2-fluorophenyl)-5-(trifluoromethyl)-1H-pyrazol-4-yl)isoxazol-4-yl)(morpholino)meth-anethione]
19 | 1 to 10 µM | CC(=O)NNC(=O)c1c(-c2c(F)cccc2Cl)noc1-c1cnn(-c2ccccc2F)c1C(F)(F)F [Example I-142, N′-acetyl-3-(2-chloro-6-fluorophenyl)-5-(1-(2-fluorophenyl)-5-(trifluoromethyl)-1H-pyrazol-4-yl)isoxazole-4-carbohydrazide]
20 | 1 to 10 µM | CCOC(=O)c1c(-c2ccc(Cl)c(Cl)c2)noc1-c1cnn(-c2cccc(F)c2)c1C(F)(F)F [Example I-99, ethyl 3-(3,4-dichlorophenyl)-5-(1-(3-fluorophenyl)-5-(trifluoromethyl)-1H-pyrazol-4-yl)isoxazole-4-carboxylate]
21 | 1 to 10 µM | COC(=O)c1c(-c2c(F)cccc2Cl)noc1-c1cnn(Cc2ccccn2)c1C(F)(F)F [Example I-101, methyl 3-(2-chloro-6-fluorophenyl)-5-(1-(pyridin-2-ylmethyl)-5-(trifluoromethyl)-1H-pyrazol-4-yl)isoxazole-4-carboxylate]
22 | 1 to 10 µM | CC(C)Cn1ncc(-c2onc(-c3c(F)cccc3Cl)c2C(=O)O)c1C(F)(F)F [IB-19, 3-(2-chloro-6-fluorophenyl)-5-(1-isobutyl-5-(trifluoromethyl)-1H-pyrazol-4-yl)isoxazole-4-carboxylic acid]
23 | 1 to 10 µM | O=C(O)c1c(-c2cccc(F)c2)noc1-c1cnn(-c2cccc(F)c2)c1C(F)(F)F [Example I-114, 3-(3-fluorophenyl)-5-(1-(3-fluorophenyl)-5-(trifluoromethyl)-1H-pyrazol-4-yl)isoxazole-4-carboxylic acid]
24 | 1 to 10 µM | COC(=O)c1c(-c2c(F)cccc2Cl)noc1-c1cnn(CCN2CCCCC2)c1C(F)(F)F [Example I-104, methyl 3-(2-chloro-6-fluorophenyl)-5-(1-(2-(piperidin-1-yl)ethyl)-5-(trifluoromethyl)-1H-pyrazol-4-yl)isoxazole-4-carboxylate]

Same assay, conditions: human PBMC, 2 μg/ml PHA, 48 hours; read-out: C: IC50 (IFNγ)

Row | IC50 | Structure (SMILES)
25 | 1 to 10 µM | Fc1cccc(Cl)c1-c1noc(-c2cnn(-c3ccccc3Cl)c2C(F)(F)F)c1-c1nnco1 [Example B-14, 2-(3-(2-chloro-6-fluorophenyl)-5-(1-(2-chlorophenyl)-5-(trifluoromethyl)-1H-pyrazol-4-yl)isoxazol-4-yl)-1,3,4-oxadiazole]
